Results as given in patent US20020197714A1, “Composition and method for increasing cell density in cell cultures infected with lentivirus” (Wyeth, priority 2001, published 2002).

Test system: Fet-J cells chronically infected with feline immunodeficiency virus (FIV)
Experiment: Cell density of FIV-infected Fet-J suspension cultures supplemented with antibiotics (trypan blue exclusion on hemacytometer)
Format: cell-based
Settings: for Cell density Day 1 / Cell density Day 2 / Cell density Day 3 / Cell density Day 4 / Cell density Day 5: antibiotic 30 micrograms/mL in serum free media, planted at 3×10^5 viable cells/mL; for Effect on growth / cell density compared with cultures without antibiotic (in words): antibiotic 30 micrograms/mL, Days 1-5
Description: In this example, Fet-J cells chronically infected with feline immunodeficiency virus (FIV) were grown in serum free media such as modified DMEM:F12 Media or AIM V media, supplemented with 2.5 mg/mL of ALBUMAX®, which is derived from BSA. Cells were grown in suspension in Erlenmeyer flasks on a rotary shaker at 150 rpm at 37° C. Cells were planted at a cell density of 3×10^5 viable cells/mL. Cell densities were determined by trypan blue exclusion on hemacytometer. Gp 120 expression determination was accomplished by enzyme linked immunosorbent assay (ELISA) using anti-FIV Gp 120 monoclonal antibodies. The antibiotics assessed for FIV supplementation included gentamycin, neomycin and polymixin B. Media were spiked with respective antibiotics at a concentration of 30 micrograms/mL. Cell densities were determined on a 24 hour basis by the method described above.

Substance	Cell density Day 1	Cell density Day 2	Cell density Day 3	Cell density Day 4	Cell density Day 5	Effect on growth / cell density compared with cultures without antibiotic (in words)
gentamycin	2.4 × 10^5 cell/mL	3.2 × 10^5 cell/mL	6.5 × 10^5 cell/mL	1.1 × 10^6 cell/mL	1.1 × 10^6 cell/mL	no significant effect
neomycin	4.7 × 10^5 cell/mL	7.8 × 10^5 cell/mL	1.2 × 10^6 cell/mL	1.3 × 10^6 cell/mL	1.8 × 10^6 cell/mL	best overall growth and increase in cell densities
polymixin B	2.9 × 10^5 cell/mL	4.6 × 10^5 cell/mL	5.8 × 10^5 cell/mL	6.6 × 10^6 cell/mL	6.6 × 10^5 cell/mL	suppressed cell density
